Laboratory results published in patent publication US9023857B2, “Substituted 6-(2-aminobenzylamino)purine derivatives, their use as medicaments and preparations containing these compounds” (Univerzita Palackeho V Olomouci, priority 2009, dated 2015).
pIC50: −log10 of the molar value.

Tests used:
[1] = test system: p53-responsive reporter pRGCΔfoslacZ in human melanoma cell line Arn8; assay: p53-dependent transcriptional activity, β-galactosidase reporter in Arn8 cells; details: concentration inducing maximum of β-galactosidase activity (p53-responsive reporter)
CDK1/cyclin B = CDK1/cyclin B (Homo sapiens, UniProt P06493); assay: CDK inhibition assay, CDK1/cyclin B
Sequence of CDK1/cyclin B (P06493 whole entry, species assumed): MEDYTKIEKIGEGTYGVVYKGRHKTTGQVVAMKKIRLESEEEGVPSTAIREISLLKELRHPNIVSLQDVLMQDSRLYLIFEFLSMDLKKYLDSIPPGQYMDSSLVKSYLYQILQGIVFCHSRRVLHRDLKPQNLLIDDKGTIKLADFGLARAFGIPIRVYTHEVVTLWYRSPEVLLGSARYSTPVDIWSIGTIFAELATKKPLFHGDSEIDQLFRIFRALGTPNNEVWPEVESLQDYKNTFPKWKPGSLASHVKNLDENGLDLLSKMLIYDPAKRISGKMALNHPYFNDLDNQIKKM
Sequence of CDK1/cyclin B (P14635 whole entry partner, species assumed): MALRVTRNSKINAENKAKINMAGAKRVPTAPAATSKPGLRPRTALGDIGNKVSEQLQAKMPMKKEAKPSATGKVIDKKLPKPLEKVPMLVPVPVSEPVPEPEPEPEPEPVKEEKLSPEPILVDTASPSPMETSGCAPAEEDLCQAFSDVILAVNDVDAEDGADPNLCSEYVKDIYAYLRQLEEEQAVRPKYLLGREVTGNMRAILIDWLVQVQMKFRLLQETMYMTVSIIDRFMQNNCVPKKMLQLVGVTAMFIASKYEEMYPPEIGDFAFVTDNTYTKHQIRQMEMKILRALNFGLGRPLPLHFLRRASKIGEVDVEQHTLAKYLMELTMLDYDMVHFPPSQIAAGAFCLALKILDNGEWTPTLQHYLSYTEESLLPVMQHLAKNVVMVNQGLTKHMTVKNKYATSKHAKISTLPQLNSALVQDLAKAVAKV

[2] = test system: human T-lymphoblastoid leukaemic cell line CEM; assay: In vitro cytotoxic activity (Calcein AM, 72 hours), CEM; details: read-out: Cytotoxicity IC50 CEM
[3] = test system: cervical carcinoma cells HELA; assay: In vitro cytotoxic activity (Calcein AM, 72 hours), HELA; details: Homo sapiens, read-out: Cytotoxicity IC50 HeLa
CDK2/cyclin E = CDK2/cyclin E (Homo sapiens, UniProt P24941); assay: CDK inhibition assay, CDK2/cyclin E
[4] = test system: promyelocytic leukemia HL 60; assay: In vitro cytotoxic activity (Calcein AM, 72 hours), HL 60; details: Homo sapiens, HL-60, 72 h, read-out: Cytotoxicity IC50 HL60
[5] = test system: human osteogenic sarcoma HOS; assay: In vitro cytotoxic activity (Calcein AM, 72 hours), HOS; details: read-out: Cytotoxicity IC50 HOS
[6] = test system: human malignant melanoma G 361; assay: In vitro cytotoxic activity (Calcein AM, 72 hours), G 361; details: G-361, 72 h, read-out: Cytotoxicity IC50 G361
[7] = In vitro cytotoxic activity (Calcein AM, 72 hours), BJ; details: human, BJ normal fibroblasts
[8] = test system: human erythroleukaemia K562; assay: In vitro cytotoxic activity (Calcein AM, 72 hours), K562; details: K562, 72 h, read-out: Cytotoxicity IC50 K-562
breast carcinoma MCF7 = assay: In vitro cytotoxic activity (Calcein AM, 72 hours), MCF7; details: Homo sapiens, MCF7, 72 h, read-out: Cytotoxicity IC50 MCF7
CDK9/cyclin T = CDK9/cyclin T (Homo sapiens, UniProt P50750); assay: CDK inhibition assay, CDK9/cyclin T
Sequence of CDK9/cyclin T (P50750 whole entry, species assumed): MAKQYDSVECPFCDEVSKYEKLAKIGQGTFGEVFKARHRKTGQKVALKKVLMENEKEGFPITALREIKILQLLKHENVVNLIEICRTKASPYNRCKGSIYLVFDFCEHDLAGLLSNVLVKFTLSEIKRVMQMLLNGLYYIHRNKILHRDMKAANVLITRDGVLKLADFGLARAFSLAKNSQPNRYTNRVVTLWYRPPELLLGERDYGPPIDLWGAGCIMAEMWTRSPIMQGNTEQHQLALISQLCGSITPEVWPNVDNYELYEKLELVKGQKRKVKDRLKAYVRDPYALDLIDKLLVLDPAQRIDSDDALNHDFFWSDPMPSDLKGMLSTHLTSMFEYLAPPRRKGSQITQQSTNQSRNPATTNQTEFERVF
Sequence of CDK9/cyclin T (O60563 whole entry partner, species assumed): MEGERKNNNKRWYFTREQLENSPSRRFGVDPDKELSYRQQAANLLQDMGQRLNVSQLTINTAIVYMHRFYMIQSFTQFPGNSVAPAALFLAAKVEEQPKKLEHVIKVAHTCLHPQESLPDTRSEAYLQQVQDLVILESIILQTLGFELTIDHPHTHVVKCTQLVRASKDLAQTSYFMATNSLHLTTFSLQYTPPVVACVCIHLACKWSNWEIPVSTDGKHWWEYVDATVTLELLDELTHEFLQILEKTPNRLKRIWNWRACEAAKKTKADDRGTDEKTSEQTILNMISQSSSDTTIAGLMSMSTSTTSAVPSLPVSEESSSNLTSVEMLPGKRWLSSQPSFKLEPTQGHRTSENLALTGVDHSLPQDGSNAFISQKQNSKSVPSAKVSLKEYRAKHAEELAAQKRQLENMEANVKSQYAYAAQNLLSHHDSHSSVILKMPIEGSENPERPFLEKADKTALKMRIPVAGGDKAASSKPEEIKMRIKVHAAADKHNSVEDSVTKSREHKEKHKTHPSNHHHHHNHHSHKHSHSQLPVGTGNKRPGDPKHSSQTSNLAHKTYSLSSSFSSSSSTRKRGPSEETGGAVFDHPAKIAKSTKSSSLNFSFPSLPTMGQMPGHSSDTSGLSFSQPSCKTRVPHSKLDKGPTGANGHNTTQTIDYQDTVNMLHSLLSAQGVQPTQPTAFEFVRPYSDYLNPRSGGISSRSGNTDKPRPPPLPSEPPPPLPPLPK

Compound	Max. β-Gal. Activtity Conc. [1] [µM]	pIC50 (CDK1/cyclin B)	pIC50 [2]	pIC50 [3]	pIC50 (CDK2/cyclin E)	pIC50 [4]	pIC50 [5]	pIC50 [6]	IC50 at 72 h [7] [µM]	pIC50 [8]	pIC50 (breast carcinoma MCF7)	pIC50 (CDK9/cyclin T)
CC(C)n1cnc2c(NCc3ccccc3N)nc(NCC(C)C(C)(C)O)nc21 (stereo not drawn) [Compound 112]	35	–	–	–	–	–	–	–	–	–	–	–
CC(CC(C)(C)O)Nc1nc(NCc2ccccc2N)c2ncn(C(C)C)c2n1 (stereo not drawn) [Compound 111]	32	–	–	–	–	–	–	–	–	–	–	–
Nc1ccccc1CNc1nc(NC2CCC(N)CC2)nc2c1ncn2C1CCCCC1 (stereo not drawn) [Compound 195]	22	6.22	4.96	4.89	6.52	4.62	4.66	4.85	> 167	4.42	4.92	7.30
CC(O)CNc1nc(NCc2ccccc2N)c2ncn(C(C)C)c2n1 (stereo not drawn) [Compound 104, 1-({6-[(2-aminobenzyl)amino]-9-isopropyl-9H-purin-2-yl}amino)propan-2-ol]	12	7.05	4.77	4.82	7.52	4.54	4.51	4.72	> 167	4.59	4.81	8.22
CCC(CO)Nc1nc(NCc2cc(Cl)ccc2N)c2ncn(C3CCCCC3)c2n1 (stereo not drawn) [Compound 209]	20	6.30	4.92	4.85	6.52	4.51	4.74	4.85	> 167	4.60	4.96	7.40
Cc1cccc(CNc2nc(NC3CCC(N)CC3)nc3c2ncn3C(C)C)c1N (stereo not drawn) [Compound 138]	2	7.00	5.06	5.04	7.15	4.64	4.60	4.89	> 167	5.02	5.42	9.22
CCC(CO)Nc1nc(NCc2cc(Cl)ccc2N)c2ncn(C(C)C)c2n1 (stereo not drawn) [Compound 118]	18	7.10	5.49	5.80	8.00	5.27	5.12	5.22	> 167	5.08	5.74	8.70
Nc1ccccc1CNc1nc(NC2CCC(N)CC2)nc2c1ncn2Cc1ccccc1 (stereo not drawn) [Compound 231]	18	6.10	4.92	4.80	6.30	4.49	4.64	4.82	> 167	4.43	4.82	7.30
CCC(CO)Nc1nc(NCc2ccccc2N)c2ncn(CC)c2n1 (stereo not drawn) [Compound 62]	7	7.15	5.62	5.80	8.00	5.17	5.49	5.60	> 167	5.27	5.74	9.15
Cn1cnc2c(NCc3ccccc3)nc(NC3CCCCC3N)nc21 (stereo not drawn) [Compound A1140]	–	5.64	4.51	4.30	5.57	4.16	4.01	4.08	> 167	4.07	4.28	5.60
CCCCCCCNc1nc(NCc2ccccc2N)c2ncn(C(C)C)c2n1 [Compound 106, N-6-(2-aminobenzyl)-N-2-heptyl-9-isopropyl-9H-purin-2,6-diamine]	41	–	–	–	–	–	–	–	–	–	–	–
CCCn1cnc2c(NCc3ccccc3N)nc(NC(CC)CO)nc21 (stereo not drawn) [Compound 187]	3	6.70	5.12	5.35	7.00	5.08	4.92	5.05	> 167	4.80	5.37	9.15
CC(Nc1nc(NCc2ccccc2N)c2ncn(C)c2n1)C(C)(C)O (stereo not drawn) [Compound 9]	25	–	–	–	–	–	–	–	–	–	–	–
CC(C)C(CO)Nc1nc(NCc2ccccc2N)c2ncn(C)c2n1 (stereo not drawn) [Compound 7]	25	7.40	6.05	6.00	8.00	5.62	6.10	5.92	> 167	5.30	5.82	9.00
CCC(Nc1nc(NCc2ccccc2N)c2ncn(C(C)C)c2n1)C(C)(C)O (stereo not drawn) [Compound 113]	16	–	–	–	–	–	–	–	–	–	–	–
Cn1cnc2c(NCc3ccccc3N)nc(NC3CCC(N)CC3)nc21 (stereo not drawn) [Compound 2]	37	6.15	5.05	4.92	6.40	4.66	4.70	4.85	> 167	4.44	5.00	8.00
CCn1cnc2c(NCc3ccccc3N)nc(NC(CO)C(C)C)nc21 (stereo not drawn) [Compound 64]	6	7.52	6.15	5.92	8.00	5.68	6.05	6.00	> 167	5.35	5.89	9.05
CCCCCCCNc1nc(NCc2ccccc2)c2ncn(C(C)C)c2n1 [Compound A218]	–	3.80	4.43	4.19	3.78	4.04	3.98	4.08	> 167	4.52	4.37	3.82
CC(C)n1cnc2c(NCc3ccccc3N)nc(N[C@H]3CC[C@H](O)CC3)nc21 [Compound 103]	14	6.70	4.85	4.74	6.82	4.44	4.20	4.48	> 167	4.53	5.00	8.52
CC(C)n1cnc2c(NCc3cc(F)ccc3N)nc(NC3CCCCC3N)nc21 (stereo not drawn) [Compound 125]	–	6.40	5.30	–	7.00	–	–	–	–	5.00	5.22	8.10
CC(C)n1cnc2c(NCc3ccccc3)nc(NC3CCC(N)CC3)nc21 (stereo not drawn) [Compound A2141]	–	6.40	4.48	4.55	6.30	4.33	4.55	4.57	> 167	4.33	4.48	6.15
CCC(CO)Nc1nc(NCc2cc(Cl)ccc2N)c2ncn(Cc3ccccc3)c2n1 (stereo not drawn) [Compound 247]	20	6.10	4.82	4.72	6.22	4.47	4.66	4.68	> 167	4.39	4.85	7.15
CC(C)n1cnc2c(NCc3ccccc3N)nc(NC(C)C(C)(C)O)nc21 (stereo not drawn) [Compound 109]	6	–	–	–	–	–	–	–	–	–	–	–
CC[C@H](CO)Nc1nc(NCc2ccccc2)c2ncn(C(C)C)c2n1 [RO]	50	–	4.85	4.66	–	4.46	4.62	4.66	> 167	4.28	4.85	–
CC(C)n1cnc2c(NCc3ccccc3)nc(NCC(C)(C)O)nc21 [Compound A2148]	–	6.22	4.29	–	6.40	–	–	4.18	–	4.33	4.19	6.30
CC(C)C(CO)Nc1nc(NCc2ccccc2N)c2ncn(C(C)C)c2n1 (stereo not drawn) [Compound 107]	11	7.30	–	–	7.40	–	–	–	–	–	–	8.70
CCC(Nc1nc(NCc2ccccc2N)c2ncn(C)c2n1)C(C)(C)O (stereo not drawn) [Compound 13]	36	–	–	–	–	–	–	–	–	–	–	–
